Data as given in US4436742A, “4-Hydroxy-2,1,3-benzthiadiazole compounds and β-adrenergic method of use therefor” (Boehringer Mannheim GmbH, priority 1974, dated 1984).

Legend:
cardiac β-receptor = test: inhibition of isoprenalin tachycardia in wake rabbits (cardiac β-receptor blocking activity); format: in vivo, rabbit; details: for Heartbeat Frequency: isoprenalin 1 μg/kg i.v. 30 minutes after infusion, x ± sx; for DE250: i.v., interpolated dosage which limits the frequence increase to 250 beats/min
Description: The following tests were carried out to determine the cardiac β-receptor blocking activity of certain test compounds by determining the inhibition of the heart beat frequency increase induced by intravenous administration of isoprenalin.
The β-receptor blocking activity of the test compounds was tested on wake rabbits weighing between 2 to 3.5 kg. and kept in wooden cages. EKG-electrodes were inserted into the hind quarters of the rabbits s.c. (II. lead) and the heart frequency was measured based on 20 heart beats. The test compounds were then infused through a small tube to the ear vein of the rabbits over a period of 15 minutes. 30 minutes after the infusion isoprenalin (3,4-dihydro-α-[(isopropylamino)-methyl]-benzylalcohol) was injected intravenously at 1 μg/kg.

[1] = acute toxicity in mice, intravenous; details: in vivo, mouse, i.v., dosage at which 50% of the mice die
Description: 1. The acute toxicity in mice when administered intravenouly was measured and the LD50 (=dosage at which 50% of the mice die) determined.

Structure (SMILES) | Heartbeat Frequency (cardiac β-receptor; 1.0 mg/kg i.v.) | Heartbeat Frequency (cardiac β-receptor; 5.0 mg/kg i.v.) | DE250 (cardiac β-receptor) | LD50 [1] | Heartbeat Frequency (cardiac β-receptor; 0.01 mg/kg i.v.) | Heartbeat Frequency (cardiac β-receptor; 0.1 mg/kg i.v.) | Heartbeat Frequency (cardiac β-receptor; 0.3 mg/kg i.v.) | Heartbeat Frequency (cardiac β-receptor; 0.5 mg/kg i.v.)
CC(C)NCC(O)COc1ccc2nsnc2c1 (centres unmarked) [Compound A, 5-(3-Isopropylamino-2-hydroxypropoxy)-2,1,3-benzo-thiadiazole, reference compound] | 290 ± 8 beats/min | 246 ± 7 beats/min | 5 mg/kg | 100 mg/kg | – | – | – | –
CC(C)NCC(O)COc1cccc2nsnc12 (centres unmarked) [Compound I, 4-(3-Isopropylamino-2-hydroxy-propyloxy)-2,1,3-benzthiadiazole] | 220 ± 14 beats/min | 210 ± 5 beats/min | 0.7 mg/kg | 50 mg/kg | 324 ± 9 beats/min | 297 ± 10 beats/min | 266 ± 14 beats/min | –
CC(C)(C)NCC(O)COc1cccc2nsnc12 (centres unmarked) [Compound II] | 215 ± 10 beats/min | 220 ± 7 beats/min | 0.5 mg/kg | 45 mg/kg | – | 308 ± 10 beats/min | – | 245 ± 6 beats/min
